Measured values taken from patent publication US20250197368A1 (priority 2020, published 2025).
Structures can show the parent of a compound that is named as a salt.

Assays:
[1] = target: human α3β3γ2 GABAARs (benzodiazepine site) (Homo sapiens (Human), UniProt P18507+P34903); test: In vitro radioligand binding assay ([3H]Ro15-1788 displacement), α3-GABAAR Ki; details: L(tk-) cell membranes, 4 nM [3H]Ro15-1788
Procedure: The affinity (Ki) of compounds for the benzodiazepine site of human recombinant GABAARs was measured by their ability to inhibit the binding of the selective benzodiazepine antagonist [^3H]Ro15-1788 ([^3H] flumazenil).
Mouse L(tk^−) cells stably expressing human α1β3γ2, α2β3γ2, α3β3γ2, α5β3γ2 GABAARs were generated by transfection of the individual subunits in the dexamethasone-inducible expression vector pMSGneo in mouse L(tk^−) cells (Hadingham et al., 1993, Mol. Pharmacol. 43:970-975 and 1993, Mol. Pharmacol. 44:1211-1218).
L(tk^−) cells stably expressing human α1β3γ2, α2β3γ2, α3β3γ2, α5β3γ2 GABAARs were maintained in DMEM F12 medium supplemented with 10% Foetal Bovine Serum, 1% Penicillin/Streptomycin and 1 mg/mL Geneticin G418 in an incubator at 37° C. with a humidified atmosphere with 5% CO2. Dexamethasone was added to the culture medium to induce GABAAR expression.
L(tk−) cells were harvested and membranes were prepared for each receptor combination in either TE buffer (10 mM Tris·CI/0.1 mM EDTA, pH 7.5) or phosphate buffer (K2PO4 10 mM, pH 7.0) (Hadingham et al. (1992) Proc. Natl. Acad. Sci. USA; 89 (14): 6378-82). Protein concentration, receptor expression and the Kd of [^3H]Ro15-1788 were determined before Ki value of the compounds were evaluated. For Kd evaluation, saturation binding curves were obtained by incubating membrane with various concentrations of [^3H]Ro15-1788 (82.5 Ci/mM), with nonspecific binding measured in the presence of 1-3 μM TP003.
For Ki evaluation, cell membranes were incubated with 4 nM [^3H]Ro15-1788 along with a range of concentrations of test compound. Nonspecific binding was determined using 1-3 μM TP003. All incubations were performed for 1 hour at 4° C. in assay buffer. The total assay volume was 0.5 mL, containing 40 μg/well α1β3γ2, 30 μg/well α2β3γ2, 40 μg/well α3β3γ2 and 30 μg/well for α5β3γ2 of membrane protein. Incubations were terminated by filtration and washing with ice cold Tris-HCl buffer (50 mM, pH=7.4) over Whatman GF/B filters and the radioactivity of the filters was measured using liquid scintillation counting.
The % inhibition of [^3H]Ro15-1788 binding was plotted as a function of compound concentration and the IC50 calculated. From the IC50, the affinity (Ki) was calculated using the method of Cheng and Prusoff using the Kd values obtained for [^3H]Ro15-1788.

human α2β3γ2 GABAARs = test: In vitro electrophysiological recording assay (automated patch-clamp), α2-GABAAR relative efficacy; format: cell-based; details: % efficacy normalised to diazepam; GABA EC10-20; concentration generally >= 100 times Ki
Procedure, shortened: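 Relative efficacy is % enhancement of the leak-subtracted GABA EC10-20 peak current, divided by the separately measured diazepam value; compound generally tested at ≥100× Ki after ≥1 min pre-application. Recordings at room temperature, human receptors stably expressed in L(tk^−) (QPatch, −65 mV) or HEK293 (SyncroPatch, −80 mV) cells.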

[2] = target: human α2β3γ2 GABAARs (benzodiazepine site) (Homo sapiens (Human), UniProt P18507+P47869); test: In vitro radioligand binding assay ([3H]Ro15-1788 displacement), α2-GABAAR Ki
Sequence of human α2β3γ2 GABAARs (benzodiazepine site) (P47869 29-451): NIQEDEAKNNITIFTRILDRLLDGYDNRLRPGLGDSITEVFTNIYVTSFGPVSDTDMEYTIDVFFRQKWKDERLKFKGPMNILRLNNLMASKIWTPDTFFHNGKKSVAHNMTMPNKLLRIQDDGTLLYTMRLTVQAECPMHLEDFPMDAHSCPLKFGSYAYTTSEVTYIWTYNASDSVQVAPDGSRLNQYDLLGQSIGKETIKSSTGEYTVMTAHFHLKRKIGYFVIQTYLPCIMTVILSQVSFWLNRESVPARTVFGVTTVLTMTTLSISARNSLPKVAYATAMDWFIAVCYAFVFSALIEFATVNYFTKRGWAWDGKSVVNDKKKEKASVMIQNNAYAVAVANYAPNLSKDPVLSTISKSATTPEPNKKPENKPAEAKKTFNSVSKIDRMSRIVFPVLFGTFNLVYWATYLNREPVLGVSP
Sequence of human α2β3γ2 GABAARs (benzodiazepine site) (P28472 26-473 partner): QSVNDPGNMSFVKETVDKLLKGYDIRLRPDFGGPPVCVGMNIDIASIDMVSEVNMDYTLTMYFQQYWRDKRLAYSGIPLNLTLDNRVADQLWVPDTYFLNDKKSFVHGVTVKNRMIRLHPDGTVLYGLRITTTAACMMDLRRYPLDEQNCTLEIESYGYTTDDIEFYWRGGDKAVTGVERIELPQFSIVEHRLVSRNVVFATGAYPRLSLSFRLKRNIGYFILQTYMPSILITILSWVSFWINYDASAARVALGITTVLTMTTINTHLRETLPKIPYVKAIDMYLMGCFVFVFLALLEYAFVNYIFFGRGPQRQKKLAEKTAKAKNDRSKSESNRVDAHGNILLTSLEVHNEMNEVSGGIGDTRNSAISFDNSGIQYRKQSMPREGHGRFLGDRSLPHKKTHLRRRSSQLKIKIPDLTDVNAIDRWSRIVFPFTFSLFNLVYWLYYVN
Sequence of human α2β3γ2 GABAARs (benzodiazepine site) (P18507 40-475): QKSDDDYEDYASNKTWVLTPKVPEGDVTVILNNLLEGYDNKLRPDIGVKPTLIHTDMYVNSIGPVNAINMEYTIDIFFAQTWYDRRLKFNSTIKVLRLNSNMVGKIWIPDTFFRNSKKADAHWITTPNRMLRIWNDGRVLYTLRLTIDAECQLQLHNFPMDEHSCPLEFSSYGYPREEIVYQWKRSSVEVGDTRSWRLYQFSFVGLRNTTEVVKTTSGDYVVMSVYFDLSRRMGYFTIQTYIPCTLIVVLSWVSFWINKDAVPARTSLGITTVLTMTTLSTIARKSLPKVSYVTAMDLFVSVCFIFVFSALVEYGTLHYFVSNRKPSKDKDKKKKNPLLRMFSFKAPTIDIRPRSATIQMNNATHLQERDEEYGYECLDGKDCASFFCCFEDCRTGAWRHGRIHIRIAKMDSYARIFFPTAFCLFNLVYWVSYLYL
Procedure, shortened: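 Ki derived via Cheng-Prusoff from IC50 for displacement of 4 nM [3H]Ro15-1788 (Kd from saturation binding), with 1-3 μM TP003 defining nonspecific binding. Incubation lasted 1 h at 4° C on membranes of induced L(tk−) cells stably transfected with the human subunits; detection by filtration and scintillation counting.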

## CCCNC(=O)c1c(N)c2cccc(-c3cccc(OC(F)F)n3)c2[nH]c1=O [Example 2, 4-Amino-8-(6-(difluoromethoxy)pyridin-2-yl)-2-oxo-N-propyl-1,2-dihydroquinoline-3-carboxamide]
[1]
  Ki: 1.59 nM
Human α2β3γ2 GABAARs
  α2-GABAAR Relative Efficacy (vs. Diazepam): 0.34
[2]
  Ki: 3.33 nM

## CCCNC(=O)c1c(N)c2cccc(-c3cc(F)ccn3)c2[nH]c1=O [Example 4, 4-Amino-8-(4-fluoro-2-pyridyl)-2-oxo-N-propyl-1H-quinoline-3-carboxamide]
[1]
  Ki: 1.65 nM
Human α2β3γ2 GABAARs
  α2-GABAAR Relative Efficacy (vs. Diazepam): 0.40
[2]
  Ki: 1.26 nM

## CCCNC(=O)c1c(N)c2cccc(-c3ncccc3C)c2[nH]c1=O [Example 5, 4-Amino-8-(3-methylpyridin-2-yl)-2-oxo-N-propyl-1,2-dihydroquinoline-3-carboxamide]
[1]
  Ki: 16.1 nM
Human α2β3γ2 GABAARs
  α2-GABAAR Relative Efficacy (vs. Diazepam): 0.42
[2]
  Ki: 5.66 nM

## CCCNC(=O)c1c(N)c2cccc(-c3nc(OC)ccc3F)c2[nH]c1=O [Example 8, 4-Amino-8-(3-fluoro-6-methoxypyridin-2-yl)-2-oxo-N-propyl-1,2-dihydroquinoline-3-carboxamide]
[1]
  Ki: 0.19 nM
Human α2β3γ2 GABAARs
  α2-GABAAR Relative Efficacy (vs. Diazepam): 0.24
[2]
  Ki: 0.38 nM

## CCCNC(=O)c1c(N)c2cccc(-c3nc(C(F)(F)F)ccc3C)c2[nH]c1=O [Example 13, 4-Amino-8-[3-methyl-6-(trifluoromethyl)-2-pyridyl]-2-oxo-N-propyl-1H-quinoline-3-carboxamide]
[1]
  Ki: 7.6 nM
Human α2β3γ2 GABAARs
  α2-GABAAR Relative Efficacy (vs. Diazepam): 0.34
[2]
  Ki: 6.05 nM

## CCCNC(=O)c1c(N)c2cccc(-c3cccnc3OC)c2[nH]c1=O [Example 14, 4-Amino-8-(2-methoxypyridin-3-yl)-2-oxo-N-propyl-1,2-dihydroquinoline-3-carboxamide]
[1]
  Ki: 6.02 nM
Human α2β3γ2 GABAARs
  α2-GABAAR Relative Efficacy (vs. Diazepam): 0.45
[2]
  Ki: 2.13 nM

## CCCNC(=O)c1c(N)c2cccc(-c3cncc(OC)c3)c2[nH]c1=O [Example 23, 4-Amino-8-(5-methoxy-3-pyridyl)-2-oxo-N-propyl-1H-quinoline-3-carboxamide]
[1]
  Ki: 7.21 nM
Human α2β3γ2 GABAARs
  α2-GABAAR Relative Efficacy (vs. Diazepam): 0.33
[2]
  Ki: 2.31 nM

## CCCNC(=O)c1c(N)c2cccc(-c3cncc(OC(C)C)c3)c2[nH]c1=O [Example 27, 4-Amino-8-(5-isopropoxypyridin-3-yl)-2-oxo-N-propyl-1,2-dihydroquinoline-3-carboxamide]
[1]
  Ki: 10.6 nM
Human α2β3γ2 GABAARs
  α2-GABAAR Relative Efficacy (vs. Diazepam): 0.28
[2]
  Ki: 22.7 nM

## CCCNC(=O)c1c(N)c2cccc(-c3cccc4c3OC(F)(F)O4)c2[nH]c1=O [Example 51, 4-Amino-8-(2,2-difluoro-1,3-benzodioxol-4-yl)-2-oxo-N-propyl-1H-quinoline-3-carboxamide]
[1]
  Ki: 1.63 nM
Human α2β3γ2 GABAARs
  α2-GABAAR Relative Efficacy (vs. Diazepam): 0.31
[2]
  Ki: 1.71 nM

## CCCNC(=O)c1c(N)c2cccc(-c3ccnn3C)c2[nH]c1=O [Example 53, 4-Amino-8-(2-methylpyrazol-3-yl)-2-oxo-N-propyl-1H-quinoline-3-carboxamide]
[1]
  Ki: 18.4 nM
Human α2β3γ2 GABAARs
  α2-GABAAR Relative Efficacy (vs. Diazepam): 0.17
[2]
  Ki: 8.05 nM

## CCCNC(=O)c1c(N)c2cccc(-c3cc(OCc4cccc(C)n4)ccc3F)c2[nH]c1=O [Example 88, 4-Amino-8-[2-fluoro-5-[(6-methyl-2-pyridyl)methoxy]phenyl]-2-oxo-N-propyl-1H-quinoline-3-carboxamide]
[1]
  Ki: 1.37 nM
Human α2β3γ2 GABAARs
  α2-GABAAR Relative Efficacy (vs. Diazepam): 0.26
[2]
  Ki: 1.97 nM

## CCCNC(=O)c1c(N)c2cccc(-c3cc(OCc4csc(C)n4)ccc3F)c2[nH]c1=O [Example 120, 4-Amino-8-(2-fluoro-5-((2-methylthiazol-4-yl)methoxy)phenyl)-2-oxo-N-propyl-1,2-dihydroquinoline-3-carboxamide]
[1]
  Ki: 1.18 nM
Human α2β3γ2 GABAARs
  α2-GABAAR Relative Efficacy (vs. Diazepam): 0.21
[2]
  Ki: 1.19 nM

## CCCNC(=O)c1c(N)c2cccc(-c3cc(OCc4cocn4)ccc3F)c2[nH]c1=O [Example 121, 4-Amino-8-[2-fluoro-5-(oxazol-4-ylmethoxy)phenyl]-2-oxo-N-propyl-1H-quinoline-3-carboxamide]
[1]
  Ki: 0.61 nM
Human α2β3γ2 GABAARs
  α2-GABAAR Relative Efficacy (vs. Diazepam): 0.35
[2]
  Ki: 0.3 nM

## CCCNC(=O)c1c(N)c2cccc(-c3cc(OCc4coc(C)n4)ccc3F)c2[nH]c1=O [Example 122, 4-Amino-8-(2-fluoro-5-((2-methyloxazol-4-yl)methoxy)phenyl)-2-oxo-N-propyl-1,2-dihydroquinoline-3-carboxamide]
[1]
  Ki: 3.56 nM
Human α2β3γ2 GABAARs
  α2-GABAAR Relative Efficacy (vs. Diazepam): 0.33
[2]
  Ki: 0.89 nM

## CCCNC(=O)c1c(N)c2cccc(-c3cc(OCc4nnc(C(F)(F)F)o4)ccc3F)c2[nH]c1=O [Example 132, 4-Amino-8-[2-fluoro-5-[[5-(trifluoromethyl)-1,3,4-oxadiazol-2-yl]methoxy]phenyl]-2-oxo-N-propyl-1H-quinoline-3-carboxamide]
[1]
  Ki: 1.19 nM
Human α2β3γ2 GABAARs
  α2-GABAAR Relative Efficacy (vs. Diazepam): 0.24
[2]
  Ki: 0.66 nM

## CCCNC(=O)c1c(N)c2cccc(-c3cc(CN4CC5(CCN(C)C5)C4)ccc3F)c2[nH]c1=O [Example 139, 4-Amino-8-(2-fluoro-5-((6-methyl-2,6-diazaspiro[3.4]octan-2-yl)methyl)phenyl)-2-oxo-N-propyl-1,2-dihydroquinoline-3-carboxamide]
Human α2β3γ2 GABAARs
  α2-GABAAR Relative Efficacy (vs. Diazepam): 0.18
[2]
  Ki: 1.08 nM

## CCCNC(=O)c1c(N)c2cccc(-c3cc(CN4CC5(CCN(C)CC5)C4)ccc3F)c2[nH]c1=O [Example 140, 4-Amino-8-(2-fluoro-5-((7-methyl-2,7-diazaspiro[3.5]nonan-2-yl)methyl)phenyl)-2-oxo-N-propyl-1,2-dihydroquinoline-3-carboxamide]
Human α2β3γ2 GABAARs
  α2-GABAAR Relative Efficacy (vs. Diazepam): 0.34
[2]
  Ki: 1.88 nM

## CCCNC(=O)c1c(N)c2cccc(-c3cc(CN4CC5(CCOCC5)C4)ccc3F)c2[nH]c1=O [Example 141, hydrochloride]
Human α2β3γ2 GABAARs
  α2-GABAAR Relative Efficacy (vs. Diazepam): 0.36
[2]
  Ki: 2.61 nM

## CCCNC(=O)c1c(N)c2cccc(-c3cc(CN4CCC5(CC4)CN(C)C5)ccc3F)c2[nH]c1=O [Example 144, 4-Amino-8-(2-fluoro-5-((2-methyl-2,7-diazaspiro[3.5]nonan-7-yl)methyl)phenyl)-2-oxo-N-propyl-1,2-dihydroquinoline-3-carboxamide]
[1]
  Ki: 5.43 nM
Human α2β3γ2 GABAARs
  α2-GABAAR Relative Efficacy (vs. Diazepam): 0.41
[2]
  Ki: 1.99 nM

## CCCNC(=O)c1c(N)c2cccc(-c3cc(Cc4ncn(CC)n4)ccc3F)c2[nH]c1=O [Example 145, 4-Amino-8-(5-((1-ethyl-1H-1,2,4-triazol-3-yl)methyl)-2-fluorophenyl)-2-oxo-N-propyl-1,2-dihydroquinoline-3-carboxamide]
Human α2β3γ2 GABAARs
  α2-GABAAR Relative Efficacy (vs. Diazepam): 0.28
[2]
  Ki: 1.29 nM
